Source: PubChem BioAssay (NCI)
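48-hour exposure; five concentrations; linearly interpolated endpoints. GI50 = concentration required for 50% inhibition of growth. TGI is the concentration that stops growth completely.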

Columns and labels:
Assay in all cases: DTP human tumour cell line panel, 48 h
[1] = system: 786-0 renal
[2] = system: A498 renal
[3] = system: A549 NSCLC
[4] = system: ACHN renal
[5] = system: BT-549 breast
[6] = system: CAKI-1 renal
[7] = system: CCRF-CEM leukemia
[8] = system: COLO 205 colon
[9] = system: DU-145 prostate
[10] = system: EKVX NSCLC
[11] = system: HCC-2998 colon
[12] = system: HCT-116 colon
[13] = system: HCT-15 colon
[14] = system: HL-60(TB) leukemia
[15] = system: HOP-62 NSCLC
[16] = system: HOP-92 NSCLC
[17] = system: HS 578T breast
[18] = system: HT29 colon
[19] = system: IGROV1 ovarian
[20] = system: K-562 leukemia
[21] = system: KM12 colon
[22] = system: LOX IMVI melanoma
[23] = system: M14 melanoma
[24] = system: MALME-3M melanoma
[25] = system: MCF7 breast
[26] = system: MDA-MB-231 breast
[27] = system: MDA-MB-435
[28] = system: MOLT-4 leukemia
[29] = system: NCI-H226 lung
[30] = system: NCI-H460 lung
[31] = system: NCI-H522 lung
[32] = system: NCI/ADR-RES ovarian
[33] = system: OVCAR-3 ovarian
[34] = system: OVCAR-4 ovarian
[35] = system: OVCAR-5 ovarian
[36] = system: OVCAR-8 ovarian
[37] = system: PC-3 prostate
[38] = system: RPMI-8226 leukemia
[39] = system: RXF 393 renal
[40] = system: SF-268 CNS
[41] = system: SF-295 CNS
[42] = system: SF-539 CNS
[43] = system: SK-MEL-2 melanoma
[44] = system: SK-MEL-28 melanoma
[45] = system: SK-MEL-5 melanoma
[46] = system: SK-OV-3 ovarian
[47] = system: SN12C renal
[48] = system: SNB-19 CNS
[49] = system: SNB-75 CNS
[50] = system: SR leukemia
[51] = system: SW-620 colon
[52] = system: T-47D breast
[53] = system: TK-10 renal
[54] = system: U251 CNS
[55] = system: UACC-257 melanoma
[56] = system: UACC-62 melanoma
[57] = system: UO-31 renal

Work on Cc1cc2nc3c4cc(Cl)ccc4n(CC(=S)NCCN(C)C)c3nc2cc1C yielded a GI50 [1] of 1.64 µM, a TGI [1] of 3.2 µM and a GI50 [2] of 17.1 µM. The TGI [2] was 31.3 µM, the GI50 [3] was 1.75 µM and the TGI [3] was 3.52 µM. The GI50 [4] was 1.6 µM, the TGI [4] was 2.95 µM and the GI50 [5] was 13.3 µM. It also gave a TGI [5] of 26.5 µM, a GI50 [6] of 2.84 µM and a TGI [6] of 14.4 µM. The GI50 [7] was 2.36 µM, the TGI [7] was 6.17 µM and the GI50 [8] was 1.78 µM. The TGI [8] was 3.49 µM, the GI50 [9] was 2.64 µM and the TGI [9] was 6.99 µM. The GI50 [10] was 3.07 µM, the TGI [10] was 11.8 µM and the GI50 [11] was 1.66 µM. It also gave a TGI [11] of 3.09 µM, a GI50 [12] of 1.73 µM and a TGI [12] of 3.17 µM. The GI50 [13] was 1.75 µM, the TGI [13] was 3.17 µM and the GI50 [14] was 1.87 µM. For the same compound, the TGI [14] was 3.99 µM, the GI50 [15] was 6.68 µM and the TGI [15] was 21.6 µM. It also gave a GI50 [16] of 1.79 µM, a TGI [16] of 8.06 µM and a GI50 [17] of 11 µM. It also gave a TGI [17] of 30.8 µM, a GI50 [18] of 1.78 µM and a TGI [18] of 3.36 µM. The GI50 [19] was 3.53 µM, the TGI [19] was 15.6 µM and the GI50 [20] was 2.07 µM. It also gave a TGI [20] of 5.21 µM, a GI50 [21] of 2.73 µM and a TGI [21] of 8.29 µM. The GI50 [22] was 0.241 µM, the TGI [22] was 1.77 µM and the GI50 [23] was 1.64 µM. It also gave a TGI [23] of 3.12 µM, a GI50 [24] of 1.86 µM and a TGI [24] of 4.16 µM. The GI50 [25] was 1.19 µM, the TGI [25] was 2.51 µM and the GI50 [26] was 1.82 µM. The TGI [26] was 3.63 µM, the GI50 [27] was 1.89 µM and the TGI [27] was 3.53 µM. The GI50 [28] was 1.97 µM, the TGI [28] was 4.29 µM and the GI50 [29] was 10.5 µM. The TGI [29] was 24.9 µM, the GI50 [30] was 1.81 µM and the TGI [30] was 3.35 µM. For the same compound, the GI50 [31] was 1.72 µM, the TGI [31] was 3.47 µM and the GI50 [32] was 1.87 µM. The TGI [32] was 3.7 µM, the GI50 [33] was 2.05 µM and the TGI [33] was 4.67 µM. The GI50 [34] was 2.81 µM, the TGI [34] was 10.2 µM and the GI50 [35] was 4.87 µM. The TGI [35] was 17.6 µM, the GI50 [36] was 1.75 µM and the TGI [36] was 3.39 µM. For the same compound, the GI50 [37] was 1.83 µM, the TGI [37] was 4.84 µM and the GI50 [38] was 2.75 µM. For the same compound, the TGI [38] was 7.49 µM, the GI50 [39] was 3.56 µM and the TGI [39] was 14.4 µM. For the same compound, the GI50 [40] was 5.56 µM, the TGI [40] was 21.1 µM and the GI50 [41] was 5.56 µM. For the same compound, the TGI [41] was 18.2 µM, the GI50 [42] was 3.33 µM and the TGI [42] was 12.2 µM. It also gave a GI50 [43] of 14.2 µM, a TGI [43] of 27.8 µM and a GI50 [44] of 1.81 µM. The TGI [44] was 3.43 µM, the GI50 [45] was 4.09 µM and the TGI [45] was 14 µM. For the same compound, the GI50 [46] was 11.8 µM, the TGI [46] was 24.1 µM and the GI50 [47] was 2.07 µM. It also gave a TGI [47] of 4.97 µM, a GI50 [48] of 5.87 µM and a TGI [48] of 19.9 µM. The GI50 [49] was 11.2 µM, the TGI [49] was 24.7 µM and the GI50 [50] was 2.46 µM. It also gave a TGI [50] of 6.23 µM, a GI50 [51] of 1.68 µM and a TGI [51] of 3.15 µM. For the same compound, the GI50 [52] was 5.11 µM, the TGI [52] was 20.2 µM and the GI50 [53] was 11.4 µM. The TGI [53] was 24.2 µM, the GI50 [54] was 1.71 µM and the TGI [54] was 3.17 µM. It also gave a GI50 [55] of 3.29 µM, a TGI [55] of 11.9 µM and a GI50 [56] of 1.81 µM. The TGI [56] was 3.62 µM, the GI50 [57] was 1.07 µM and the TGI [57] was 2.53 µM.
